From PubChem BioAssay (NCI)
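Interpolation was linear, between the two tested concentrations surrounding the appropriate level; five concentrations were tested over 48 hours in 96-well plates. TGI marks complete inhibition of growth.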

Tests used:
Experiment in all cases: inhibition of tumour cell growth, NCI panel, 48 h
786-0 renal = test system: 786-0 renal
A498 renal = test system: A498 renal
A549 NSCLC = test system: A549 NSCLC
ACHN renal = test system: ACHN renal
BT-549 breast = test system: BT-549 breast
CAKI-1 renal = test system: CAKI-1 renal
CCRF-CEM leukemia = test system: CCRF-CEM leukemia
COLO 205 colon = test system: COLO 205 colon
DU-145 prostate = test system: DU-145 prostate
EKVX NSCLC = test system: EKVX NSCLC
HCC-2998 colon = test system: HCC-2998 colon
HCT-116 colon = test system: HCT-116 colon
HCT-15 colon = test system: HCT-15 colon
HOP-62 NSCLC = test system: HOP-62 NSCLC
HS 578T breast = test system: HS 578T breast
HT29 colon = test system: HT29 colon
IGROV1 ovarian = test system: IGROV1 ovarian
KM12 colon = test system: KM12 colon
LOX IMVI melanoma = test system: LOX IMVI melanoma
M14 melanoma = test system: M14 melanoma
MALME-3M melanoma = test system: MALME-3M melanoma
MCF7 breast = test system: MCF7 breast
MDA-MB-231 breast = test system: MDA-MB-231 breast
MDA-N = test system: MDA-N
MOLT-4 leukemia = test system: MOLT-4 leukemia
NCI-H226 lung = test system: NCI-H226 lung
NCI-H23 lung = test system: NCI-H23 lung
NCI-H460 lung = test system: NCI-H460 lung
NCI-H522 lung = test system: NCI-H522 lung
NCI/ADR-RES ovarian = test system: NCI/ADR-RES ovarian
OVCAR-3 ovarian = test system: OVCAR-3 ovarian
OVCAR-4 ovarian = test system: OVCAR-4 ovarian
OVCAR-5 ovarian = test system: OVCAR-5 ovarian
OVCAR-8 ovarian = test system: OVCAR-8 ovarian
PC-3 prostate = test system: PC-3 prostate
RPMI-8226 leukemia = test system: RPMI-8226 leukemia
RXF 393 renal = test system: RXF 393 renal
SF-268 CNS = test system: SF-268 CNS
SF-295 CNS = test system: SF-295 CNS
SF-539 CNS = test system: SF-539 CNS
SK-MEL-2 melanoma = test system: SK-MEL-2 melanoma
SK-MEL-28 melanoma = test system: SK-MEL-28 melanoma
SK-MEL-5 melanoma = test system: SK-MEL-5 melanoma
SK-OV-3 ovarian = test system: SK-OV-3 ovarian
SN12C renal = test system: SN12C renal
SNB-19 CNS = test system: SNB-19 CNS
SNB-75 CNS = test system: SNB-75 CNS
SR leukemia = test system: SR leukemia
SW-620 colon = test system: SW-620 colon
T-47D breast = test system: T-47D breast
TK-10 renal = test system: TK-10 renal
U251 CNS = test system: U251 CNS
UACC-257 melanoma = test system: UACC-257 melanoma
UACC-62 melanoma = test system: UACC-62 melanoma
UO-31 renal = test system: UO-31 renal
HL-60(TB) leukemia = test system: HL-60(TB) leukemia
HOP-92 NSCLC = test system: HOP-92 NSCLC
K-562 leukemia = test system: K-562 leukemia
MDA-MB-435 = test system: MDA-MB-435

CCC/C(Cl)=N\OC(=O)Nc1cccc(C(F)(F)F)c1
TGI (786-0 renal): 29.5 µM | TGI (A498 renal): 32 µM | TGI (A549 NSCLC): 36.1 µM | TGI (ACHN renal): 29.8 µM | TGI (BT-549 breast): 24.7 µM | TGI (CAKI-1 renal): 33.1 µM | TGI (CCRF-CEM leukemia): 5.67 µM | TGI (COLO 205 colon): 8.51 µM | TGI (DU-145 prostate): 17.8 µM | TGI (EKVX NSCLC): 31.4 µM | TGI (HCC-2998 colon): 33.4 µM | TGI (HCT-116 colon): 34.9 µM | TGI (HCT-15 colon): 18.4 µM | TGI (HOP-62 NSCLC): > 100 µM | TGI (HS 578T breast): 70.2 µM | TGI (HT29 colon): 50.3 µM | TGI (IGROV1 ovarian): 32.4 µM | TGI (KM12 colon): 33.3 µM | TGI (LOX IMVI melanoma): 19.7 µM | TGI (M14 melanoma): 32.7 µM | TGI (MALME-3M melanoma): 26.4 µM | TGI (MCF7 breast): 30.1 µM | TGI (MDA-MB-231 breast): 33.8 µM | TGI (MDA-N): 31.9 µM | TGI (MOLT-4 leukemia): 13.6 µM | TGI (NCI-H226 lung): 37.8 µM | TGI (NCI-H23 lung): 41.1 µM | TGI (NCI-H460 lung): 35.8 µM | TGI (NCI-H522 lung): 3.42 µM | TGI (NCI/ADR-RES ovarian): > 59.4 µM | TGI (OVCAR-3 ovarian): 40.2 µM | TGI (OVCAR-4 ovarian): 38.5 µM | TGI (OVCAR-5 ovarian): 46.1 µM | TGI (OVCAR-8 ovarian): 32.3 µM | TGI (PC-3 prostate): 31.6 µM | TGI (RPMI-8226 leukemia): 25.8 µM | TGI (RXF 393 renal): 33.8 µM | TGI (SF-268 CNS): 67.8 µM | TGI (SF-295 CNS): 19.5 µM | TGI (SF-539 CNS): 35.1 µM | TGI (SK-MEL-2 melanoma): 31.4 µM | TGI (SK-MEL-28 melanoma): 37.6 µM | TGI (SK-MEL-5 melanoma): 28.9 µM | TGI (SK-OV-3 ovarian): 18 µM | TGI (SN12C renal): 29.7 µM | TGI (SNB-19 CNS): > 100 µM | TGI (SNB-75 CNS): 24.3 µM | TGI (SR leukemia): 5.93 µM | TGI (SW-620 colon): 8.66 µM | TGI (T-47D breast): 55.3 µM | TGI (TK-10 renal): 28.8 µM | TGI (U251 CNS): 34.4 µM | TGI (UACC-257 melanoma): 31.6 µM | TGI (UACC-62 melanoma): 55.3 µM | TGI (UO-31 renal): 33.9 µM

CC(C)(C)OC(=O)NCCC(=O)NC1(c2cc3ccccc3s2)CCCCC1
TGI (786-0 renal): 35.7 µM | TGI (A498 renal): 45.4 µM | TGI (A549 NSCLC): 38.6 µM | TGI (ACHN renal): 61.4 µM | TGI (BT-549 breast): 32.5 µM | TGI (CAKI-1 renal): 48.6 µM | TGI (CCRF-CEM leukemia): 27.5 µM | TGI (COLO 205 colon): 32.9 µM | TGI (DU-145 prostate): 33.6 µM | TGI (EKVX NSCLC): 50.6 µM | TGI (HCC-2998 colon): 47.5 µM | TGI (HCT-116 colon): 27 µM | TGI (HCT-15 colon): 30.6 µM | TGI (HL-60(TB) leukemia): 35.1 µM | TGI (HOP-62 NSCLC): 35.3 µM | TGI (HOP-92 NSCLC): 33.7 µM | TGI (HS 578T breast): 48.8 µM | TGI (HT29 colon): 29.7 µM | TGI (IGROV1 ovarian): 36.5 µM | TGI (K-562 leukemia): 28.9 µM | TGI (KM12 colon): 33.5 µM | TGI (LOX IMVI melanoma): 36.5 µM | TGI (M14 melanoma): 34.2 µM | TGI (MALME-3M melanoma): 37.5 µM | TGI (MCF7 breast): 41 µM | TGI (MDA-MB-231 breast): 38.4 µM | TGI (MDA-MB-435): 33.1 µM | TGI (MDA-N): 34.2 µM | TGI (MOLT-4 leukemia): 28.5 µM | TGI (NCI-H226 lung): 42.4 µM | TGI (NCI-H23 lung): 31.4 µM | TGI (NCI-H460 lung): 34.3 µM | TGI (NCI-H522 lung): 26.2 µM | TGI (NCI/ADR-RES ovarian): 41.6 µM | TGI (OVCAR-3 ovarian): 33.2 µM | TGI (OVCAR-4 ovarian): 29.1 µM | TGI (OVCAR-5 ovarian): 39.9 µM | TGI (OVCAR-8 ovarian): 35.8 µM | TGI (PC-3 prostate): 37 µM | TGI (RPMI-8226 leukemia): 20.5 µM | TGI (RXF 393 renal): 26.2 µM | TGI (SF-295 CNS): 36.5 µM | TGI (SF-539 CNS): 29.2 µM | TGI (SK-MEL-2 melanoma): 44.9 µM | TGI (SK-MEL-28 melanoma): 35 µM | TGI (SK-MEL-5 melanoma): 25.9 µM | TGI (SK-OV-3 ovarian): 60.1 µM | TGI (SN12C renal): 34.3 µM | TGI (SNB-19 CNS): 37.1 µM | TGI (SNB-75 CNS): 38.7 µM | TGI (SW-620 colon): 41.1 µM | TGI (T-47D breast): 33.3 µM | TGI (TK-10 renal): 55.4 µM | TGI (U251 CNS): 37.7 µM | TGI (UACC-257 melanoma): 39 µM | TGI (UACC-62 melanoma): 49.1 µM | TGI (UO-31 renal): 30.5 µM
